Data set [1] is described as follows: Hepatotoxicity against human HepG2 cells assessed as reduction in cell viability at 300 uM after 24 hrs by MTT assay. As to conditions: hepg2, 24 h. The class given is toxicity, cell-based. For orientation: Tetrazolium dyes change colour on reduction, which living cells bring about.
For data set [2], the system named is HEK293. The data set is described as follows: Cytotoxicity against HEK293 cells at 0.1 to 300 uM after 24 hrs by MTT assay. Format: cell-based. Conditions: human, hek293, 24 h.
Data set [3] in a line: Hepatotoxicity against human HepG2 cells assessed as reduction in cell viability at 10 to 300 uM after 72 hrs by MTT assay. The class given is toxicity, cell-based. Conditions: hepg2, 72 h.
For the next data set, the target named is Acetylcholinesterase (Electrophorus electricus, UniProt O42275). The data set is described as follows: Inhibition of electric eel AChE using acetylthiocholine as substrate preincubated for 20 mins followed by substrate addition measured every 2 mins for 20 mins by Ellman's method. (Ellman's reagent forms a yellow product with free thiols.)
Sequence of Acetylcholinesterase (O42275 whole entry): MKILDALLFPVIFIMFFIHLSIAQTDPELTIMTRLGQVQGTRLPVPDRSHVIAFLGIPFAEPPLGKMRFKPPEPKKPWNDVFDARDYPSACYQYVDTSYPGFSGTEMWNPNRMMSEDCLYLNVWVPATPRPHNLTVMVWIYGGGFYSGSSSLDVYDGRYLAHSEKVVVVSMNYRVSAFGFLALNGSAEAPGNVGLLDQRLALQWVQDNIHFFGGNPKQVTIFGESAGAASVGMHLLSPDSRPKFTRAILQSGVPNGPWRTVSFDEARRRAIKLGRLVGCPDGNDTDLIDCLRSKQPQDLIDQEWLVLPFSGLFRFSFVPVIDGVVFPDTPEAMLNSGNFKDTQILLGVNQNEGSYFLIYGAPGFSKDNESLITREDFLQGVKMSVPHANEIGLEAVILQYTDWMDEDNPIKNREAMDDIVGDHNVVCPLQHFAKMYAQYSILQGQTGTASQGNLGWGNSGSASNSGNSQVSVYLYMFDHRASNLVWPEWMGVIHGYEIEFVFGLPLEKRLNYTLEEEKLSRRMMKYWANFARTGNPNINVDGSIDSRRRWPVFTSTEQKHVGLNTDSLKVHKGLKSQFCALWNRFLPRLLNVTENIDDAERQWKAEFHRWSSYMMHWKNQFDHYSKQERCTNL
Another data set has as its target Cholinesterase (Equus caballus, UniProt P81908).
Data set [4] relates to HEK293. The experiment in a line: Cytotoxicity against HEK293 cells at > 50 uM after 24 hrs by MTT assay. The class given is cell-based. As to conditions: human, hek293, 24 h.
The nature of data set [5]: Cytotoxicity against HEK293 cells assessed as cell viability up to 100 uM after 24 hrs by MTT assay relative to control. Format: cell-based. As to conditions: human, read-out: Activity.
Data set [6] can be described thus: Hepatotoxicity against human HepG2 cells assessed as reduction in cell viability at 50 uM after 24 hrs by MTT assay. Conditions: hepg2, 24 h. The class given is toxicity, cell-based.

These results are taken from ChEMBL document CHEMBL4190324 (Eur J Med Chem, 2017).

SMILES strings stand for the structures.

Sequence of Cholinesterase (P81908 whole entry): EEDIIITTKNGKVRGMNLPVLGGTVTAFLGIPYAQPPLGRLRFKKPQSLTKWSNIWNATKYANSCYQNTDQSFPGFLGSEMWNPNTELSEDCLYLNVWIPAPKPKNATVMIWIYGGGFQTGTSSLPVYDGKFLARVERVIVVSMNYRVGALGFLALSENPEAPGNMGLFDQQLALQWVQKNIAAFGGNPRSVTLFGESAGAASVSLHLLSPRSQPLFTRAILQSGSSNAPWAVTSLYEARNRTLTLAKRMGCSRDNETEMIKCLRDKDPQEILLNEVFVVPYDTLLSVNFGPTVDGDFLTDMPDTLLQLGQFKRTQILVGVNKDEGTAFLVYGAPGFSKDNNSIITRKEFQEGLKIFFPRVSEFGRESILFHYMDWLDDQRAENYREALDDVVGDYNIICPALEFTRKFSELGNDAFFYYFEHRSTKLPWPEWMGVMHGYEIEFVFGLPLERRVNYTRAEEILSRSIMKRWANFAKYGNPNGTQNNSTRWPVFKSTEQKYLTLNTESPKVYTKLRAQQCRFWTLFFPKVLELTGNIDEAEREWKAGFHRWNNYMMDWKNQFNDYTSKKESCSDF

In general, IC50 refers to the concentration at which inhibition is half-maximal. Low readings indicate greater potency in that assay, high ones weaker potency in that assay. For the molecule `NNC(=O)C1CCc2nc3ccccc3c(N)c2C1` (configuration not stated), the Activity result (in data set [1]; in the data set with HEK293 [2]; in data set [3]) was “Non-Toxic” in each case. At Acetylcholinesterase, this molecule came in with an IC50 of 0.013 µM.
For `Nc1c2c(nc3cc(Br)ccc13)CCC(C(=O)NCc1ccccc1)C2` (configuration not stated), the IC50 at Cholinesterase was 10.2 µM; on Acetylcholinesterase, 0.0337 µM. In addition, the Activity result with HEK293 [4] is “Toxic”. Moreover, the viability at 24 h in data set [5] is > 80%.
As to `Nc1c2c(nc3ccccc13)CCC(C(=O)NCCCc1ccccc1)C2` (configuration not stated), the figures for the IC50 against Cholinesterase and against Acetylcholinesterase were 3.68 µM and 0.00517 µM, respectively. Further, the Activity entry (in the data set with HEK293 [4]; in data set [6]) was “Toxic” in each case.
For `Nc1c2c(nc3cc(-c4cncnc4)ccc13)CCC(C(=O)NCCCc1ccccc1)C2` (configuration not stated), the IC50 came to 18 µM against Cholinesterase and 0.0408 µM against Acetylcholinesterase. In addition, the Activity entry in the data set on HEK293 [4] is given as “Toxic”.
As to `Nc1c2c(nc3ccccc13)CCC(C(=O)NCCc1ccccc1)C2` (configuration not stated), the IC50 was determined as 4.05 µM against Cholinesterase and 0.0168 µM on Acetylcholinesterase. Moreover, the Activity result (with HEK293 [4]; in data set [6]) was “Toxic” each time.
Regarding `Cn1nccc1NC(=O)C1CCc2nc3cc(Br)ccc3c(N)c2C1` (configuration not stated), the figures for the IC50 against Cholinesterase and at Acetylcholinesterase were 20.9 µM and 0.0177 µM, respectively. In addition, the viability at 24 h in data set [5] was > 80%.
As to `Cn1cc(-c2ccc3c(N)c4c(nc3c2)CCC(C(=O)NCCCc2ccccc2)C4)cn1` (configuration not stated), the IC50 was 2.77 µM on Cholinesterase and 0.0576 µM on Acetylcholinesterase.
As for `Nc1c2c(nc3cc(Br)ccc13)CCC(C(=O)NCCCc1ccccc1)C2` (configuration not stated), the IC50 came out at 5.11 µM against Cholinesterase and 0.00714 µM against Acetylcholinesterase. Also, the Activity result (with HEK293 [4]; in data set [6]) was “Toxic” in each case.
In the case of `Nc1c2c(nc3ccccc13)CCC(C(=O)NCc1ccccc1)C2` (configuration not stated), the values for the IC50 against Cholinesterase and on Acetylcholinesterase were 10.8 µM and 0.0372 µM, respectively.
On to `Cn1cc(-c2ccc3c(N)c4c(nc3c2)CCC(C(=O)NCCc2ccccc2)C4)cn1` (configuration not stated), for which the IC50 on Cholinesterase is 10.6 µM; on Acetylcholinesterase, 0.189 µM. Besides, in the data set with HEK293 [4], the Activity result is “Toxic”.
For the molecule `Nc1c2c(nc3cc(Br)ccc13)CCC(C(=O)NCCc1ccccc1)C2` (configuration not stated), the half-inhibitory concentration (IC50) against Cholinesterase was 7.17 µM; against Acetylcholinesterase, 0.0241 µM. Moreover, the Activity entry (in the data set on HEK293 [4]; in data set [6]) was “Toxic” in each case.
The molecule `CNC(=O)C1CCc2nc3cc(Br)ccc3c(N)c2C1` (configuration not stated) returned an IC50 against Acetylcholinesterase of 0.0286 µM. For the same molecule, the viability at 24 h in data set [5] was > 80%. Also, the Activity entry in data set [6] is “Toxic”.
As to `Cn1cc(-c2ccc3c(N)c4c(nc3c2)CCC(C(=O)NCc2ccccc2)C4)cn1` (configuration not stated), the IC50 against Cholinesterase was determined as 2.26 µM; against Acetylcholinesterase it was 0.191 µM.
